Patent publication US20250032623A1, “HETEROBIFUNCTIONAL COMPOUNDS AND THEIR USE IN TREATING DISEASE” (HALDA THERAPEUTICS OPCO, INC., priority 2021, published 2025)

Experiments:
[1] = molecular target: T1, EGFR (Homo sapiens, UniProt P00533); experiment: KdELECT binding assay, EGFR
T1 construct: purchased
Outline: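 Competition binding: DNA- or T7 phage-tagged EGFR was incubated 1 h at room temperature with immobilized ligand beads and an 11-point 3-fold compound series (0.9% DMSO final). Bead-bound kinase was eluted and quantified by qPCR to derive Kd.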

[2] = molecular target: T2, EGFR T790M, L858R (amino acids 669-1011 Accession Number NP_005219.2) (Homo sapiens, UniProt P00533, L858R/T790M); experiment: KdELECT binding assay (Eurofins Discovery), EGFR T790M, L858R; conditions: read-out: EGFR DM Kd
T2 construct: purchased Eurofins Discovery; host or cells: mammalian cells (HEK-293)
Outline: (§1)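 Competition binding: WT kinase as T7 phage fusion from E. coli, T790M/L858R produced in HEK-293 and DNA-tagged, incubated 1 h at room temperature with immobilized ligand beads and compound (11-point 3-fold series, 0.9% DMSO). Bead-bound kinase eluted and quantified by qPCR to derive Kd.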

[3] = molecular target: T3, EGFR WT (amino acids 669-1011, Accession Number NP_005219.2) (Homo sapiens, UniProt P00533); experiment: KdELECT binding assay (Eurofins Discovery), EGFR WT
T3 construct: purchased Eurofins Discovery; host or cells: bacteria (E. coli, BL21-derived, T7 phage)
Outline: as §1

[4] = molecular target: T4, full-length CDK9 (amino acids 1-372; Accession Number NP_001252.1) (Homo sapiens, UniProt P50750); experiment: KdELECT binding assay, CDK9
T4 construct: full-length CDK9 (amino acids 1-372); purchased; host or cells: bacteria (E. coli, BL21-derived, T7 phage)
Method: Exemplary compounds were tested for ability to bind to full-length CDK9 (amino acids 1-372; Accession Number NP_001252.1) expressed from bacteria. Compounds were tested using a KdELECT assay.
Kinase-tagged T7 phage strains were prepared in an E. coli host derived from the BL21 strain. E. coli were grown to log-phase and infected with T7 phage and incubated with shaking at 32° C. until lysis. The lysates were centrifuged and filtered to remove cell debris. The remaining kinases were produced in HEK-293 cells and subsequently tagged with DNA for qPCR detection. Streptavidin-coated magnetic beads were treated with biotinylated small molecule ligands for 30 minutes at room temperature to generate affinity resins for kinase assays. The liganded beads were blocked with excess biotin and washed with blocking buffer (SeaBlock (Pierce), 1% BSA, 0.05% Tween 20, 1 mM DTT) to remove unbound ligand and to reduce non-specific binding. Binding reactions were assembled by combining kinases, liganded affinity beads, and test compounds in 1× binding buffer (20% SeaBlock, 0.17×PBS, 0.05% Tween 20, 6 mM DTT). Test compounds were prepared as 111× stocks in 100% DMSO. Kd values were determined using an 11-point 3-fold compound dilution series with three DMSO control points. All compounds for Kd measurements are distributed by acoustic transfer (non-contact dispensing) in 100% DMSO. The compounds were then diluted directly into the assays such that the final concentration of DMSO was 0.9%. All reactions performed in polypropylene 384-well plate. Each was a final volume of 0.02 mL. The assay plates were incubated at room temperature with shaking for 1 hour and the affinity beads were washed with wash buffer (1×PBS, 0.05% Tween 20). The beads were then re-suspended in elution buffer (1×PBS, 0.05% Tween 20, 0.5 μM nonbiotinylated affinity ligand) and incubated at room temperature with shaking for 30 minutes. The kinase concentration in the eluates was measured by qPCR.

[5] = system: HEK293 cells; experiment: Cellular growth inhibition assay (CellTiter-Glo), HEK293 cells; type: cell-based; conditions: Homo sapiens, 72 h, three days compound treatment, CellTiter-Glo 2.0, read-out: CTG HEK293 GI50
Outline: (§2)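 HEK293 or HeLa cells seeded at 500 cells/well in DMEM with 10% FBS, treated after 24 h with titrated compound for three days at 37 °C, 5% CO2. CellTiter-Glo 2.0 luminescence read on Day 0 and Day 3, normalized to DMSO, four-parameter fit giving GI50.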

[6] = system: HeLa cells; experiment: Cellular growth inhibition assay (CellTiter-Glo), HeLa cells; type: cell-based; conditions: Homo sapiens, 72 h, three days compound treatment, CellTiter-Glo 2.0, read-out: CTG HELA GI50
Outline: as §2

[7] = molecular target: T5, KRAS G12C (Homo sapiens, UniProt P01116, G12C); experiment: KRAS G12C nucleotide exchange assay (SOS1 mediated, HTRF); type: biochemical; conditions: 1 hr pre-incubation at RT, read-out: IC50 (inhibition of KRas G12C)
T5 construct: Kras (aa 2-169), GST; purchased Reaction Biology Corporation (RBC)
Method: Exemplary compounds were tested for ability to inhibit KRas G12C.
KRAS target engagement (IC50 determination) was performed using a KRAS G12C nucleotide exchange assay (Reaction Biology Corporation). Specifically, compounds were tested against KRAS G12C in 10-point concentration IC50 mode with 3-fold serial dilution at a starting concentration of 10 μM. ARS1620 was used as a control. Compounds were pre-incubated with protein for 1 hr at RT. Parameters for the assay were:
In the method, Kras was mixed with a-GST Tb antibody (1.5× solution) and […] was delivered to reaction wells. Compounds were delivered using acoustic dispenser (Echo, Labcyte). Kras/aGST-Tb Ab/compound mixture was incubated for 1 hour at room temperature. A 3× solution of SOS1 and GTP* was prepared in reaction buffer. A […] aliquot of SOS1/GTP* solution was added to reaction well to initiate the exchange reaction. No—SOS1 reaction or max compound concentration was used as blank. IC50 determination was performed using a Sigmoidal dose response (variable slope) equation.

T1 sequence (P00533 25-1210): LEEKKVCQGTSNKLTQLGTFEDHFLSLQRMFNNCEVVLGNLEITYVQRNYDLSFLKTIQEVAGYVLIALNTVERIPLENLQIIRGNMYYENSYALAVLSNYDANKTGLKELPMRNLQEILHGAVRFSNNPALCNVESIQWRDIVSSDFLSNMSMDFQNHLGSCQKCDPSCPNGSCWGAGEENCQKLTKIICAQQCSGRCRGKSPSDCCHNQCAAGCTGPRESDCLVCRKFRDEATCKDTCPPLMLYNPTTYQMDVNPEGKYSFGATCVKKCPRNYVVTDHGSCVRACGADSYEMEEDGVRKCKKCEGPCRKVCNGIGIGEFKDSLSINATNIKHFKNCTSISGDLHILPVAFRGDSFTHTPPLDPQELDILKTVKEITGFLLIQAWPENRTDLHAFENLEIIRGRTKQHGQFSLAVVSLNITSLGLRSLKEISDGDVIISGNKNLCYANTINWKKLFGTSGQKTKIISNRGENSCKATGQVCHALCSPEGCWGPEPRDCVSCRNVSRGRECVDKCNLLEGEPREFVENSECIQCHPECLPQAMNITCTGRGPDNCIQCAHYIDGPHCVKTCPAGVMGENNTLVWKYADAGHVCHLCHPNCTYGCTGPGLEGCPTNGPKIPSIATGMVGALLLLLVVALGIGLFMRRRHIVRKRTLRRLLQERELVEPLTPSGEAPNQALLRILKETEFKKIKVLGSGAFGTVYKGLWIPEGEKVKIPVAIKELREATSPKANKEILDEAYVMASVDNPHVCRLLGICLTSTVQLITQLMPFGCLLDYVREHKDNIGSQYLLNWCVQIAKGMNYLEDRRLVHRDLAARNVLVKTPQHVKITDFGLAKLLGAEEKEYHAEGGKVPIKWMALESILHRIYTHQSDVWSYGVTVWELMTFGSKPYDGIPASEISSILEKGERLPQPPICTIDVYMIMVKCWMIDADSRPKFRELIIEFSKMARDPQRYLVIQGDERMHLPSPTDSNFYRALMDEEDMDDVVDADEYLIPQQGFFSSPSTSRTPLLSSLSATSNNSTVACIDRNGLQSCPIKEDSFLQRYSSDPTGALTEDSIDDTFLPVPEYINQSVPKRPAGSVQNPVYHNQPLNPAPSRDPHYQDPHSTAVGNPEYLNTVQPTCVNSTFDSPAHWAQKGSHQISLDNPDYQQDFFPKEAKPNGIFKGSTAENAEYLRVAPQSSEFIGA
T4 sequence (P50750 whole entry, the tested form may be a part): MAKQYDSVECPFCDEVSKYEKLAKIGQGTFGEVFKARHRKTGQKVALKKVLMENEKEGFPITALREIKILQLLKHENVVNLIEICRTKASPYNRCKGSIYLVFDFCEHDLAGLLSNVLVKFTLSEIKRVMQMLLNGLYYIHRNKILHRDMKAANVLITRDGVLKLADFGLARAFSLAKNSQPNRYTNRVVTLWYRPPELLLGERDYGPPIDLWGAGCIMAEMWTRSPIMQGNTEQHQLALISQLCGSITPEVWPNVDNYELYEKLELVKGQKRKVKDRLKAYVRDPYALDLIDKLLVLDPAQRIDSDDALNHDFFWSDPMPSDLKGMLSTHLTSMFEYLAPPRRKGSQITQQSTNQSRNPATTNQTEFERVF
T2 sequence (P00533 669-1011 T790M/L858R): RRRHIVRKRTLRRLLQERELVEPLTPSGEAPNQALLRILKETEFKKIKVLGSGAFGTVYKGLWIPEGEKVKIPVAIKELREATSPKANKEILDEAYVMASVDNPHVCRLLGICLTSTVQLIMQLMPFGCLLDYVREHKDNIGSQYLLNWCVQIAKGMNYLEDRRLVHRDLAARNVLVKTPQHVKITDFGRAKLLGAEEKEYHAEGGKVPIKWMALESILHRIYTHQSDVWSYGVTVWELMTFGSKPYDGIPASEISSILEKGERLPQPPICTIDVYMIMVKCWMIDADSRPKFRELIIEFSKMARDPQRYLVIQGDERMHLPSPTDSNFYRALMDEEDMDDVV
T5 sequence (P01116 2-169 isoform P01116-2 G12C): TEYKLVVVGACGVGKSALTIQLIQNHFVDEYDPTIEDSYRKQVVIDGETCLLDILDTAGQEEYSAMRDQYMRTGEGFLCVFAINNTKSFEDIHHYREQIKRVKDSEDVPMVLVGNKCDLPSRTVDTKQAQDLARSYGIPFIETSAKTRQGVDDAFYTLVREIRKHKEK
T3 sequence (P00533 669-1011): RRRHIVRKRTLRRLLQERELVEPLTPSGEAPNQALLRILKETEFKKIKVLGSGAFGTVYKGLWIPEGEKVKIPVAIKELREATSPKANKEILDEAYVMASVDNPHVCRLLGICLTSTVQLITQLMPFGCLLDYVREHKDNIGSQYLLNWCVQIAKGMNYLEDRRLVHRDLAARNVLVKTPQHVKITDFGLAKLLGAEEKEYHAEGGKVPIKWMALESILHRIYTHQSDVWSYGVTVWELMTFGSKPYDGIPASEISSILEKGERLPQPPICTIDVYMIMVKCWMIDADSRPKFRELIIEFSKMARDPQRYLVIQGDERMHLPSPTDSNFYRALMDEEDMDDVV

C=CC(=O)Nc1cc(Nc2nccc(-c3cn(C)c4ccccc34)n2)c(OC)cc1N(C)CCN(C)CCOCCOCCNS(=O)(=O)c1ccc(Nc2ncc(Br)c(Nc3cccc(F)c3C(N)=O)n2)cc1 [Compound I-33, 2-[[5-bromo-2-[4-[2-[2-[2-[2-[5-methoxy-N-methyl-4-[[4-(1-methylindol-3-yl)pyrimidin-2-yl]amino]-2-(prop-2-enoylamino)anilino]ethyl-methyl-amino]ethoxy]ethoxy]ethyl-sulfamoyl]anilino]pyrimidin-4-yl]amino]-6-fluoro-benzamide]
Kd [1]: < 50 nM | Kd [2]: < 50 nM | Kd [3]: 50 to 500 nM | Kd [4]: 500 to 2500 nM

C=CC(=O)N[C@@H]1CN(c2nc(Nc3cn(CCOCCOCCOCCOCCOCCOCCNS(=O)(=O)c4ccc(Nc5ncc(Br)c(Nc6cccc(F)c6C(N)=O)n5)cc4)nc3OC)c3ncn(C)c3n2)C[C@H]1F [Compound I-143, 2-[[5-bromo-2-[4-[2-[2-[2-[2-[2-[2-[2-[4-[[2-[(3R,4R)-3-fluoro-4-(prop-2-enoylamino)pyrrolidin-1-yl]-9-methyl-purin-6-yl]amino]-3-methoxy-pyrazol-1-yl]ethoxy]ethoxy]ethoxy]ethoxy]ethoxy]ethoxy]ethylsulfamoyl]anilino]pyrimidin-4-yl]amino]-6-fluoro-benzamide]
GI50 [5]: > 5000 nM | GI50 [6]: > 5000 nM | Kd [1]: < 50 nM | Kd [2]: < 50 nM | Kd [3]: < 50 nM | Kd [4]: 500 to 2500 nM

C=CC(=O)Nc1cc(Nc2nccc(-c3cn(C)c4ccccc34)n2)c(OC)cc1N(C)CCN(C)CCOCCOCCOCCOCCOc1ccc(CNc2cc(N3CCCC[C@H]3CCO)nc3c(CC)cnn23)cn1 [Compound I-132]
GI50 [5]: < 500 nM | GI50 [6]: < 500 nM | Kd [1]: 50 to 500 nM | Kd [2]: < 50 nM | Kd [3]: 50 to 500 nM | Kd [4]: < 50 nM

CCc1cnn2c(NCc3ccc(OCCOCCOCCOCCOCCOC/C=C/C(=O)N4CCN(c5nc(OC[C@@H]6CCCN6C)nc6c5CCN(c5cccc7cccc(Cl)c57)C6)C[C@@H]4CC#N)nc3)cc(N3CCCCC3CCO)nc12 (stereo partly drawn) [Compound I-86, 2-[(2S)-4-[7-(8-chloro-1-naphthyl)-2-[[(2S)-1-methylpyrrolidin-2-yl]methoxy]-6,8-dihydro-5H-pyrido[3,4-d]pyrimidin-4-yl]-1-[(E)-4-[2-[2-[2-[2-[2-[[5-[[[3-ethyl-5-[2-(2-hydroxyethyl)-1-piperidyl]pyrazolo[1,5-a]pyrimidin-7-yl]amino]methyl]-2-pyridyl]oxy]ethoxy]ethoxy]ethoxy]ethoxy]ethoxy]but-2-enoyl]piperazin-2-yl]acetonitrile]
GI50 [5]: 500 to 1500 nM | GI50 [6]: < 500 nM | IC50 [7]: 100 to 1000 nM | Kd [4]: < 50 nM

C=CC(=O)N[C@@H]1CN(c2nc(Nc3cn(CCOCCOCCOCCOCCNS(=O)(=O)c4ccc(Nc5ncc(Br)c(Nc6cccc(F)c6C(N)=O)n5)cc4)nc3OC)c3ncn(C)c3n2)C[C@H]1F [Compound I-138, 2-[[5-bromo-2-[4-[2-[2-[2-[2-[2-[4-[[2-[(3R,4R)-3-fluoro-4-(prop-2-enoylamino)pyrrolidin-1-yl]-9-methyl-purin-6-yl]amino]-3-methoxy-pyrazol-1-yl]ethoxy]ethoxy]ethoxy]ethoxy]ethylsulfamoyl]anilino]pyrimidin-4-yl]amino]-6-fluoro-benzamide]
GI50 [5]: > 5000 nM | GI50 [6]: > 5000 nM | Kd [1]: < 50 nM | Kd [2]: < 50 nM | Kd [3]: < 50 nM | Kd [4]: 500 to 2500 nM

CCc1cnn2c(NCc3ccc(OCCOCCOCCOCCOCCN(C)C/C=C/C(=O)N4CCN(c5nc(OC[C@@H]6CCCN6C)nc6c5CCN(c5cccc7cccc(Cl)c57)C6)C[C@@H]4CC#N)nc3)cc(N3CCCC[C@H]3CCO)nc12 [Compound I-92, 2-((S)-4-(7-(8-chloronaphthalen-1-yl)-2-(((S)-1-methylpyrrolidin-2-yl)methoxy)-5,6,7,8-tetrahydropyrido [3,4-d]pyrimidin-4-yl)-1-((E)-1-((5-(((3-ethyl-5-((S)-2-(2-hydroxyethyl)piperidin-1-yl)pyrazolo[1,5-a]pyrimidin-7-yl)amino)methyl)pyridin-2-yl)oxy)-15-methyl-3,6,9,12-tetraoxa-15-azanonadec-17-en-19-oyl)piperazin-2-yl)acetonitrile]
GI50 [5]: 500 to 1500 nM | GI50 [6]: < 500 nM | IC50 [7]: < 100 nM | Kd [4]: > 2500 nM

CCc1cnn2c(NCc3ccc(OCCOCCOCCOCCOCCOCCOCCN(C)C/C=C/C(=O)N4CCN(c5nc(OC[C@@H]6CCCN6C)nc6c5CCN(c5cccc7cccc(Cl)c57)C6)C[C@@H]4CC#N)nc3)cc(N3CCCC[C@H]3CCO)nc12 [Compound I-94, 2-((S)-4-(7-(8-chloronaphthalen-1-yl)-2-(((S)-1-methylpyrrolidin-2-yl)methoxy) -5,6,7,8-tetrahydropyrido[3,4-d]pyrimidin-4-yl)-1-((E)-1-((5-(((3-ethyl-5-((S)-2-(2-hydroxyethyl)piperidin-1-yl)pyrazolo[1,5-a]pyrimidin-7-yl)amino)methyl)pyridin-2-yl)oxy)-21-methyl-3,6,9,12,15,18-hexaoxa-21-azapentacos-23-en-25-oyl)piperazin-2-yl)acetonitrile]
GI50 [5]: 1500 to 5000 nM | GI50 [6]: 500 to 1500 nM | IC50 [7]: < 100 nM

CCc1cnn2c(NCc3ccc(OCCOCCOCCOCCOCCOCCOCCOCCOCCN(C)C/C=C/C(=O)N4CCN(c5nc(OC[C@@H]6CCCN6C)nc6c5CCN(c5cccc7cccc(Cl)c57)C6)C[C@@H]4CC#N)nc3)cc(N3CCCC[C@H]3CCO)nc12 [Compound I-93, 2-((S)-4-(7-(8-chloronaphthalen-1-yl)-2-(((S)-1-methylpyrrolidin-2-yl)methoxy)-5,6,7,8-tetrahydropyrido[3,4d]pyrimidin4-yl)-1-((E)-1-((5-(((3-ethyl-5-((S)-2-(2-hydroxyethyl)piperidin-1-yl)pyrazolo[1,5-a]pyrimidin-7-yl)amino)methyl)pyridin-2-yl)oxy)-27-methyl-3,6,9,12,15,18,21,24-octaoxa-27-azahentriacont-29-en-31-oyl)piperazin-2-yl)acetonitrile]
GI50 [5]: 1500 to 5000 nM | GI50 [6]: < 500 nM | IC50 [7]: < 100 nM
